Like-named read-outs stand apart in the source and are kept apart here.
Assays:
[1] = test system: Vero cells; assay: Cytotoxicity assay (MTT), Vero cells; type: cell-based, African Green Monkey; settings: Chlorocebus sabaeus, 72 h, mean ± SD
Procedure: (§1) The MTT colorimetric assay was conducted to assess the cytotoxicity of the compounds according to a method described previously. Briefly, Vero cells or macrophages were cultured in 96-well plates (5 × 10^3 cells/well/200 μL) in RPMI 1640 medium with 10% FBS at 37 °C and under 5% CO2 for 24 h. Thereafter, PBS was used to wash the cells. Then, the compounds in RPMI complete medium with 10% FBS (at varying concentrations of 50, 25, 12.5, 6.25, 3.13, 1.65, 0.75, or 0.37 μg mL^–1) were added to 96-well plates and incubated for 72 h. Cells treated with a medium containing only DMSO (1%) were used as the negative control. After washing, MTT (1 mg mL^–1 in RPMI 1640 medium) was added to each well. The cells were incubated for 4 h, and the supernatant was removed. Next, 150 μL of DMSO was added, and a microplate absorbance spectrophotometer was applied for colorimetric analysis (λ = 540 nm). Cytotoxic effects were expressed by IC50 values (concentration that caused a 50% reduction of viable cells). The experiment was performed in triplicate.

[2] = test system: T. gondii tachyzoites (RH strain); assay: Anti-Toxoplasma activity (infection index in Vero cells, 72 h); type: cell-based, Toxoplasma gondii; settings: mean ± SD
Procedure: Tachyzoites of the T. gondii RH strain were cultivated in Vero cells according to a published method. Complete RPMI 1640 medium (Invitrogen, USA) with 10% fetal bovine serum (FBS, Invitrogen, USA) was used to culture Vero cells in 96-well plates (5 × 10^3 cells/well in 200 μL of medium), which were incubated at 37 °C and under 5% CO2 for 24 h. This was followed by washing with phosphate-buffered saline (PBS) to remove the medium. Then, RPMI 1640 medium with 2% FBS containing T. gondii tachyzoites (RH strain) at a ratio of 5 (parasite): 1 (Vero cells) was added. After incubation at 37 °C and under 5% CO2 for 5 h, the cells were washed with PBS and overlaid with medium containing one of the tested compounds or atovaquone (ATO) at 50, 25, 12.5, 6.25, 3.13, 1.65, 0.75, or 0.37 μg mL^–1.
After incubation at 37 °C and under 5% CO2 for 72 h, the cells were stained with 1% toluidine before being examined under an inverted photomicroscope (MCD-400, Leica, Japan) to determine the T. gondii infection index (number of infected cells from 200 tested cells). The experiment was performed in triplicate.

[3] = test system: macrophages; assay: Cytotoxicity assay (MTT), macrophages; type: cell-based, BALB/c mouse; settings: Mus musculus, Macrophage; 72 h, mean ± SD; read-out: IC50 macro
Procedure: (§2) Female BALB/c mouse peritoneal macrophages (6–8 weeks old) were used to culture L. major amastigotes to assess the activity of the compounds against amastigotes. Briefly, 1 mL of 3% Brewer’s thioglycollate medium/mouse was injected into the peritoneal cavity. After 4 days, the abdominal skin was removed to expose the peritoneal wall. Then, 3 mL of RPMI 1640 medium was injected before cells were collected by aspiration, whereupon 96-well plates containing RPMI 1640 medium with 10% FBS were used to culture 5 × 10^4 cells/well, which were incubated at 37 °C under 5% CO2 for 4 h. After washing with PBS, RPMI 1640 medium containing 5 × 10^5 promastigotes were added to each well. Next, the cells were incubated at 37 °C under humidified 5% CO2 for 24 h to enhance infection and differentiation of amastigotes. Washing with PBS several times removed free promastigotes. Fresh complete RPMI 1640 medium containing one of the tested compounds or AmB at the desired final concentration (50, 25, 12.5, 6.25, 3.13, 1.65, 0.75, or 0.37 μg mL^–1) was added and incubated at 37 °C under a humidified 5% CO2 atmosphere for 72 h. DMSO (1%), only in complete RPMI media, was used as the negative control. The percentage of infected macrophages was assessed microscopically after the medium was removed, followed by washing with PBS, fixation with methanol, and staining with Giemsa. The reading was performed in triplicate. Handling of the laboratory animals followed the instructions and rules of the Committee of Research Ethics, Deanship of Scientific Research, Qassim University, permission number 20–03–20.
as §1

[4] = test system: L. major amastigotes; assay: Activity against L. major amastigotes in peritoneal macrophages (percentage of infected macrophages, Giemsa, 72 h); type: cell-based, Leishmania major; settings: Leishmania major, intracellular amastigotes, mean ± SD, read-out: EC50 L. major ama
Procedure: (§3) L. major promastigotes were isolated and maintained according to a described method. BALB/c mice were injected at the hind footpads with 1 × 10^6 L. major metacyclic promastigotes. L. major amastigotes were collected from the infected mice. After 8 weeks had elapsed since inoculation, Schneider’s medium (Invitrogen, USA) containing antibiotics and 10% FBS was used to transform isolated amastigotes into promastigotes by incubation at 26 °C. Amastigote-derived promastigotes with less than five in vitro passages were only used for infection.
as §2

[5] = test system: L. major promastigotes; assay: Activity against L. major promastigotes (MTT, 72 h); type: cell-based, Leishmania major; settings: mean ± SD, read-out: EC50 L. major prom
Procedure: as §3
To assess the activity of the compounds against L. major promastigotes, 10^6 promastigotes/mL were cultured in 96-well plates in Schneider’s medium with 10% FBS. Then, the compounds or amphotericin B (AmB) were added to obtain the final concentrations (50, 25, 12.5, 6.25, 3.13, 1.65, 0.75, or 0.37 μg mL^–1). Negative control wells contained cultures with DMSO (1%) only. Plates were incubated at 26 °C for 72 h to evaluate the antiproliferative effect. The colorimetric MTT method was used to count viable promastigotes under a microplate absorbance spectrophotometer (xMark, Bio-Rad, USA) at 570 nm. The experiment was performed in triplicate.

[6] = test system: L. amazonensis promastigotes; parameters: method as in Oliveira and co-workers; settings: ref Oliveira and co-workers, cited from earlier work

Compound | IC50 [1] [µM] | EC50 ([2]; Toxoplasma gondii, Vero) [µM] | IC50 [3] [µM] | EC50 [4] [µM] | EC50 ([5]; Leishmania major) [µM] | IC50 ([6]; read-out: IC50 against L. amazonensis promastigotes) [µM] | activity against L. amazonensis promastigotes [6] | EC50 [5] [µM] | EC50 [2] [µM]
CCOC(=O)C1=C(C)NC2=C(C(=O)CC(C)(C)C2)C1c1cc(OC)c(OC)c(OC)c1 (stereo not shown) [Compound 13] | > 48.4 | > 48.4 | > 48.4 | > 48.4 | > 48.4 | 24.6 |  |  | 
CCOC(=O)C1=C(C)NC2=C(C(=O)CC(C)(C)C2)C1c1c(OC)cc(OC)cc1OC (stereo not shown) [Compound 14] | 22.8 ± 3.3 | > 48.4 | 16.8 ± 3.1 | 21 ± 3.9 |  |  | inactive |  | 
CCOC(=O)C1=C(C)NC2=C(C(=O)CC(C)(C)C2)C1c1ccco1 (stereo not shown) [Compound 15] | > 51.3 | > 51.3 | > 51.3 | > 51.3 | < 50 |  |  | 40 ± 6.4 | 
CCOC(=O)C1=C(C)NC2=C(C(=O)CC(C)(C)C2)C1c1cccs1 (stereo not shown) [Compound 16] | 12.6 ± 2.1 | 8.1 ± 1.3 | 29.9 ± 5.1 | 31.8 ± 5.4 | > 49.3 |  |  |  | 
CCOC(=O)C1=C(C)NC(C)=C(C(=O)OCC)C1c1ccccc1 [Compound 17] | 60.1 ± 10.6 | < 50 | > 63.1 | > 63.1 | > 63.1 |  |  |  | 49.8 ± 6.5
CCOC(=O)C1=C(C)NC(C)=C(C(=O)OCC)C1c1ccc(OC)cc1 [Compound 18] | 45.4 ± 7.8 | > 57.9 | > 57.9 | > 57.9 | > 57.9 |  |  |  | 
CCOC(=O)C1=C(C)NC(C)=C(C(=O)OCC)C1c1ccc(OCc2ccccc2)cc1 [Compound 19] | 33.5 ± 6.2 | > 47.8 | 43.4 ± 7.5 | > 47.8 | > 47.8 |  |  |  | 
CCOC(=O)C1=C(C)NC(C)=C(C(=O)OCC)C1c1ccc(Br)cc1 [Compound 20] | 35 ± 5.9 | > 50.9 | 44.8 ± 8.2 | > 50.9 | > 50.9 |  |  |  | 
CCOC(=O)C1=C(C)NC(C)=C(C(=O)OCC)C1c1cccc(F)c1 [Compound 21] | > 59.9 | > 59.9 | > 59.9 | > 59.9 | > 59.9 |  |  |  | 
CCOC(=O)C1=C(C)NC(C)=C(C(=O)OCC)C1c1cccc([N+](=O)[O-])c1 [Compound 22] | 29.9 ± 4.4 |  | 46.5 ± 7.4 | > 55.6 | < 50 |  | inactive | 46.5 ± 7.7 | 
CCOC(=O)C1=C(C)NC(C)=C(C(=O)OCC)C1c1ccc(O)c(OC)c1 [Compound 23] | 22.1 ± 3.2 | < 50 | 40.5 ± 6.8 | > 55.4 | > 55.4 |  |  |  | 29.8 ± 4.8
CCOC(=O)C1=C(C)NC(C)=C(C(=O)OCC)C1c1cc(OC)c(OC)c(OC)c1 [Compound 24] | 14.8 ± 2.6 | > 49.6 | 34.1 ± 5.5 | > 49.6 | < 50 |  | inactive | 42.7 ± 8 | 
